This passage reports MIC results from ChEMBL document CHEMBL4699464, “Talascortenes A-G, Highly Oxygenated Diterpenoid Acids from the Sea-Anemone-Derived Endozoic Fungus Talaromyces scorteus AS-242” (2020).

Usually MIC stands for the lowest concentration that inhibits growth of the organism.

Holding throughout (assay type): functional
For one experiment, the system named is Micrococcus luteus. Put plainly: Antimicrobial activity against Micrococcus luteus QDIO-3 by serial dilution technique.
The next experiment has as its system Escherichia coli. Put plainly: Antimicrobial activity against Escherichia coli EMBLC-1 by serial dilution technique.
Experiment [1] concerns Colletotrichum gloeosporioides. Put plainly: Antimicrobial activity against Colletotrichum gloeosporioides QDAU-2 by serial dilution technique.
A further experiment relates to Vibrio parahaemolyticus. Put plainly: Antimicrobial activity against Vibrio parahaemolyticus QDIO-8 by serial dilution technique.
The test system of another experiment is Fusarium oxysporum. Put plainly: Antimicrobial activity against Fusarium oxysporum QDAU-8 by serial dilution technique.
Another experiment deals with Aeromonas hydrophila. Put plainly: Antimicrobial activity against Aeromonas hydrophila QDIO-1 by serial dilution technique.
For a further experiment, the system named is Pseudomonas aeruginosa. Put plainly: Antimicrobial activity against Pseudomonas aeruginosa QDIO-4 by serial dilution technique.
Another experiment deals with Gaeumannomyces graminis. Put plainly: Antimicrobial activity against Gaeumannomyces graminis QDAU-21 by serial dilution technique.
A further experiment deals with Ceratobasidium cereale. Put plainly: Antimicrobial activity against Rhizoctonia cerealis QDAU-20 by serial dilution technique.
The next experiment deals with Edwardsiella tarda. Put plainly: Antimicrobial activity against Edwardsiella tarda QDIO-9 by serial dilution technique.
A further experiment relates to Vibrio harveyi. Put plainly: Antimicrobial activity against Vibrio harveyi QDIO-7 by serial dilution technique.

Converted amounts (≈) assume the structure as drawn.

As to `C[C@]1(O)C[C@]23CC[C@H]1C[C@@H]2[C@@]1(C)CCC[C@](C)(C(=O)O)[C@]1(O)CC3`, the minimum inhibitory concentration (MIC) is 2 µg/mL (≈ 5.94 µM) in the experiment with Micrococcus luteus; 32 µg/mL (≈ 95.1 µM) against Escherichia coli; greater than 32 µg/mL in experiment [1]; greater than 32 µg/mL with Vibrio parahaemolyticus; 16 µg/mL (≈ 47.6 µM) in the experiment on Fusarium oxysporum; greater than 32 µg/mL in the experiment with Aeromonas hydrophila. Besides, the MIC is 16 µg/mL (≈ 47.6 µM) in the experiment with Pseudomonas aeruginosa; 4 µg/mL (≈ 11.9 µM) in the experiment with Gaeumannomyces graminis; 8 µg/mL (≈ 23.8 µM) in the experiment on Ceratobasidium cereale; 16 µg/mL (≈ 47.6 µM) against Edwardsiella tarda; greater than 32 µg/mL with Vibrio harveyi.

With `C=C[C@]1(C)CCC2=C(CC[C@]3(O)[C@@](C)(C(=O)O)CCC[C@]23C)[C@H]1O`, the MIC in the experiment on Micrococcus luteus is greater than 32 µg/mL; in the experiment with Escherichia coli, 16 µg/mL (≈ 47.8 µM); in experiment [1] it was greater than 32 µg/mL; in the experiment with Vibrio parahaemolyticus, greater than 32 µg/mL; in the experiment on Fusarium oxysporum it was greater than 32 µg/mL; against Aeromonas hydrophila it was 16 µg/mL (≈ 47.8 µM). Besides, the MIC is greater than 32 µg/mL in the experiment with Pseudomonas aeruginosa; greater than 32 µg/mL with Gaeumannomyces graminis; greater than 32 µg/mL with Ceratobasidium cereale; greater than 32 µg/mL in the experiment on Edwardsiella tarda; 8 µg/mL (≈ 23.9 µM) against Vibrio harveyi.

For `C=C[C@]1(C)CCC2=C(CC[C@@]3(O)[C@@](C)(C(=O)O)[C@H](O)CC[C@]23C)[C@H]1O`, the MIC in the experiment with Micrococcus luteus is greater than 32 µg/mL; in the experiment on Escherichia coli, 8 µg/mL (≈ 22.8 µM); in experiment [1], greater than 32 µg/mL; in the experiment on Vibrio parahaemolyticus, greater than 32 µg/mL; in the experiment with Fusarium oxysporum, greater than 32 µg/mL; in the experiment with Aeromonas hydrophila it was greater than 32 µg/mL. The MIC in the experiment on Pseudomonas aeruginosa, against Gaeumannomyces graminis, against Ceratobasidium cereale, against Edwardsiella tarda and in the experiment with Vibrio harveyi was greater than 32 µg/mL throughout.

With `C=C[C@]1(C)CC[C@@]2(O)[C@](O)(CC[C@]3(O)[C@]2(C)CCC[C@]3(C)C(=O)O)C1`, the MIC against Micrococcus luteus was greater than 32 µg/mL; with Escherichia coli, 8 µg/mL (≈ 22.7 µM); in experiment [1] it was greater than 32 µg/mL; against Vibrio parahaemolyticus, greater than 32 µg/mL; in the experiment on Fusarium oxysporum, greater than 32 µg/mL; in the experiment with Aeromonas hydrophila it was greater than 32 µg/mL. Also, the MIC against Pseudomonas aeruginosa, with Gaeumannomyces graminis, against Ceratobasidium cereale, in the experiment on Edwardsiella tarda and against Vibrio harveyi was greater than 32 µg/mL in each case.

With `C=C[C@H]1[C@@H]2CC[C@@]3(O)[C@@](C)(C(=O)O)[C@H](O)CC[C@]3(C)[C@H]2CC[C@@]1(O)CCl`, the minimal inhibitory concentration (MIC) with Micrococcus luteus is 4 µg/mL (≈ 10.3 µM); against Escherichia coli, greater than 32 µg/mL; in experiment [1], greater than 32 µg/mL; in the experiment with Vibrio parahaemolyticus it was 32 µg/mL (≈ 82.7 µM); in the experiment with Fusarium oxysporum, greater than 32 µg/mL; in the experiment on Aeromonas hydrophila, greater than 32 µg/mL. For the same molecule, the MIC against Pseudomonas aeruginosa, in the experiment on Gaeumannomyces graminis, against Ceratobasidium cereale, against Edwardsiella tarda and with Vibrio harveyi was greater than 32 µg/mL in each case.

In the case of `O=C(N[C@H](CO)[C@H](O)c1ccc([N+](=O)[O-])cc1)C(Cl)Cl` [CHLORAMPHENICOL], the minimal inhibitory concentration (MIC) against Micrococcus luteus came out at 1 µg/mL (≈ 3.09 µM); in the experiment on Escherichia coli it was 1 µg/mL (≈ 3.09 µM); in the experiment with Vibrio parahaemolyticus, 0.5 µg/mL (≈ 1.55 µM); with Aeromonas hydrophila, 4 µg/mL (≈ 12.4 µM); against Pseudomonas aeruginosa, 2 µg/mL (≈ 6.19 µM); against Edwardsiella tarda it was 0.5 µg/mL (≈ 1.55 µM). The molecule further gave a minimal inhibitory concentration (MIC) in the experiment with Vibrio harveyi of 2 µg/mL (≈ 6.19 µM).

Regarding `C=C1CC[C@]2(O)[C@](C)(CCC[C@]2(C)C(=O)O)[C@]1(O)CC/C(C)=C/CO`, the MIC with Micrococcus luteus is greater than 32 µg/mL; against Escherichia coli, greater than 32 µg/mL; in experiment [1] it was greater than 32 µg/mL; against Vibrio parahaemolyticus it was 8 µg/mL (≈ 22.7 µM); against Fusarium oxysporum, greater than 32 µg/mL; against Aeromonas hydrophila, greater than 32 µg/mL. Further, the MIC in the experiment on Pseudomonas aeruginosa, in the experiment with Gaeumannomyces graminis, against Ceratobasidium cereale, against Edwardsiella tarda and against Vibrio harveyi was greater than 32 µg/mL each time.

As for `C=C[C@]1(C)CCC2=C(CC[C@@]3(O)[C@@](C)(C(=O)O)[C@H](O)CC[C@]23C)[C@@H]1OC`, the MIC against Micrococcus luteus is greater than 32 µg/mL; in the experiment with Escherichia coli, greater than 32 µg/mL; in [1], greater than 32 µg/mL; against Vibrio parahaemolyticus, 8 µg/mL (≈ 21.9 µM); with Fusarium oxysporum, greater than 32 µg/mL; with Aeromonas hydrophila, greater than 32 µg/mL. Moreover, the minimal inhibitory concentration (MIC) is 32 µg/mL (≈ 87.8 µM) in the experiment with Pseudomonas aeruginosa; greater than 32 µg/mL against Gaeumannomyces graminis; greater than 32 µg/mL with Ceratobasidium cereale; greater than 32 µg/mL against Edwardsiella tarda; greater than 32 µg/mL against Vibrio harveyi.

As for `C=C[C@]1(C)CCC2=C(CC[C@@]3(O)[C@@](C)(C(=O)O)CCC[C@]23C)[C@H]1OC`, the MIC in the experiment with Micrococcus luteus is 8 µg/mL (≈ 23 µM); against Escherichia coli it was 1 µg/mL (≈ 2.87 µM); in [1], 2 µg/mL (≈ 5.74 µM); in the experiment on Vibrio parahaemolyticus, greater than 32 µg/mL; against Fusarium oxysporum, greater than 32 µg/mL; in the experiment with Aeromonas hydrophila it was greater than 32 µg/mL. The minimum inhibitory concentration (MIC) in the experiment on Pseudomonas aeruginosa, in the experiment on Gaeumannomyces graminis, against Ceratobasidium cereale, against Edwardsiella tarda and against Vibrio harveyi was greater than 32 µg/mL throughout.

For the molecule `C[C@@H]1[C@H](O)[C@@H](C)/C=C/C=C/C=C/C=C/C=C/C=C/C=C/[C@H](O[C@@H]2O[C@H](C)[C@@H](O)[C@H](N)[C@@H]2O)C[C@@H]2O[C@](O)(C[C@@H](O)C[C@@H](O)[C@H](O)CC[C@@H](O)C[C@@H](O)CC(=O)O[C@H]1C)C[C@H](O)[C@H]2C(=O)O` [AMPHOTERICIN B], the MIC in experiment [1] is 2 µg/mL (≈ 2.16 µM); in the experiment on Fusarium oxysporum it was 0.5 µg/mL (≈ 0.541 µM); against Gaeumannomyces graminis it was 1 µg/mL (≈ 1.08 µM); with Ceratobasidium cereale, 1 µg/mL (≈ 1.08 µM).
